Results as given in PubChem BioAssay AID248 (DTP/NCI, 2004).
Toxic doses and inconclusive results are not listed. Cut-off read from the data, not from the text of the source: active = T/C of 150% or more; inactive = T/C below 125%.

Tested on: L1210 leukemia ip in BDF1 mice, survival T/C
Assay: NCI In Vivo Anticancer Drug Screen. Data for tumor model L1210 Leukemia (intraperitoneal) in B6D2F1 (BDF1) mice
Details: endpoint: mean survival time, higher = longer survival
In short: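 In this screen, tumor-bearing mice given compound are compared to those given vehicle, and their survival values are reported as a treated-to-control quotient.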

[1] = dose: 100.0 mg/kg/injection, schedule: Q04DX003 (ip), vehicle: saline
[2] = dose: 200.0 mg/kg/injection, schedule: Q04DX003 (ip), vehicle: saline
[3] = dose: 400.0 mg/kg/injection, schedule: Q04DX003 (ip), vehicle: saline
[4] = dose: 100.0 mg/kg/injection, schedule: Q01DX009 (ip), vehicle: Klucel (hydroxypropylcellulose) (HPC)
[5] = dose: 200.0 mg/kg/injection, schedule: Q01DX009 (ip), vehicle: Klucel (hydroxypropylcellulose) (HPC)
[6] = dose: 100.0 mg/kg/injection, schedule: Q04DX003 (ip), vehicle: saline with Tween-80
[7] = dose: 200.0 mg/kg/injection, schedule: Q04DX003 (ip), vehicle: saline with Tween-80
[8] = dose: 400.0 mg/kg/injection, schedule: Q04DX003 (ip), vehicle: saline with Tween-80
[9] = dose: 100.0 mg/kg/injection, schedule: Q04DX003 (ip), vehicle: Klucel (hydroxypropylcellulose) (HPC)
[10] = dose: 200.0 mg/kg/injection, schedule: Q04DX003 (ip), vehicle: Klucel (hydroxypropylcellulose) (HPC)
[11] = dose: 400.0 mg/kg/injection, schedule: Q04DX003 (ip), vehicle: Klucel (hydroxypropylcellulose) (HPC)
[12] = dose: 50.0 mg/kg/injection, schedule: Q01DX001 (ip), vehicle: carboxymethylcellulose (CMC)
[13] = dose: 100.0 mg/kg/injection, schedule: Q04DX002 (ip), vehicle: saline
[14] = dose: 200.0 mg/kg/injection, schedule: Q04DX002 (ip), vehicle: saline
[15] = dose: 400.0 mg/kg/injection, schedule: Q04DX002 (ip), vehicle: saline
[16] = dose: 50.0 mg/kg/injection, schedule: Q01DX001 (ip), vehicle: saline
[17] = dose: 100.0 mg/kg/injection, schedule: Q01DX001 (ip), vehicle: saline
[18] = dose: 100.0 mg/kg/injection, schedule: Q01DX009 (ip), vehicle: saline
[19] = dose: 200.0 mg/kg/injection, schedule: Q01DX009 (ip), vehicle: saline
[20] = dose: 100.0 mg/kg/injection, schedule: Q01DX009 (ip), vehicle: saline with Tween-80
[21] = dose: 200.0 mg/kg/injection, schedule: Q01DX009 (ip), vehicle: saline with Tween-80
[22] = dose: 400.0 mg/kg/injection, schedule: Q01DX009 (ip), vehicle: saline with Tween-80
[23] = dose: 200.0 mg/kg/injection, schedule: Q01DX001 (ip), vehicle: saline
[24] = dose: 400.0 mg/kg/injection, schedule: Q01DX001 (ip), vehicle: saline
[25] = dose: 100.0 mg/kg/injection, schedule: Q04DX002 (ip), vehicle: saline with Tween-80
[26] = dose: 200.0 mg/kg/injection, schedule: Q04DX002 (ip), vehicle: saline with Tween-80
[27] = dose: 400.0 mg/kg/injection, schedule: Q04DX002 (ip), vehicle: saline with Tween-80

Measured: T/C

NC(=O)C(c1ccccc1)N1CCOCC1 (configuration not stated)
inactive: dose: 50.0 mg/kg/injection, schedule: Q04DX003 (ip), vehicle: saline 106 % of control | [1] 102 % of control | [2] 104 % of control | [3] 102 % of control

CN(C)C(=O)Nc1ccc2c(c1)OCO2
inactive: dose: 75.0 mg/kg/injection, schedule: Q01DX009 (ip), vehicle: Klucel (hydroxypropylcellulose) (HPC) 107 % of control | dose: 100.0 mg/kg/injection, schedule: Q01DX001 (ip), vehicle: Klucel (hydroxypropylcellulose) (HPC) 111 % of control | dose: 150.0 mg/kg/injection, schedule: Q01DX009 (ip), vehicle: Klucel (hydroxypropylcellulose) (HPC) 110 % of control | dose: 200.0 mg/kg/injection, schedule: Q01DX001 (ip), vehicle: Klucel (hydroxypropylcellulose) (HPC) 104 % of control | dose: 300.0 mg/kg/injection, schedule: Q01DX009 (ip), vehicle: Klucel (hydroxypropylcellulose) (HPC) 102 % of control

O=C(O)c1c(Br)c(Br)c(Br)c(Br)c1C(=O)Nc1ccc(Br)cc1
inactive: [4] 104 % of control | [5] 101 % of control

NC(=O)C1CCCCC1C(N)=O (configuration not stated)
inactive: [6] 96 % of control | [7] 102 % of control | [8] 96 % of control

CCOc1c(Br)cc(Br)cc1/C=N/NS(=O)(=O)c1ccc(C)cc1
inactive: dose: 50.0 mg/kg/injection, schedule: Q01DX009 (ip), vehicle: Klucel (hydroxypropylcellulose) (HPC) 103 % of control | [4] 105 % of control | [9] 101 % of control | [10] 109 % of control | [11] 92 % of control

COc1cc(C)ccc1OC(=O)Nc1ccccc1
inactive: dose: 100.0 mg/kg/injection, schedule: Q04DX002 (ip), vehicle: Klucel (hydroxypropylcellulose) (HPC) 109 % of control | dose: 200.0 mg/kg/injection, schedule: Q04DX002 (ip), vehicle: Klucel (hydroxypropylcellulose) (HPC) 113 % of control | dose: 400.0 mg/kg/injection, schedule: Q04DX002 (ip), vehicle: Klucel (hydroxypropylcellulose) (HPC) 106 % of control

O=C(/C=C/c1ccco1)c1ccc(F)cc1
inactive: dose: 75.0 mg/kg/injection, schedule: Q01DX001 (ip), vehicle: saline 94 % of control | dose: 150.0 mg/kg/injection, schedule: Q01DX001 (ip), vehicle: saline 98 % of control | dose: 300.0 mg/kg/injection, schedule: Q01DX001 (ip), vehicle: saline 102 % of control

COc1cc(N)c2c(c1N)C(=O)c1ccccc1C2=O
inactive: [4] 96 % of control | [9] 98 % of control | [5] 104 % of control | [10] 90 % of control | dose: 400.0 mg/kg/injection, schedule: Q01DX009 (ip), vehicle: Klucel (hydroxypropylcellulose) (HPC) 100 % of control | [11] 100 % of control

CCn1c2ccccc2c2cc(N=Cc3ccc(N(CCCl)CCCl)cc3C)ccc21
inactive: [12] 103 % of control | dose: 100.0 mg/kg/injection, schedule: Q01DX001 (ip), vehicle: carboxymethylcellulose (CMC) 103 % of control | dose: 200.0 mg/kg/injection, schedule: Q01DX001 (ip), vehicle: carboxymethylcellulose (CMC) 117 % of control | dose: 400.0 mg/kg/injection, schedule: Q01DX001 (ip), vehicle: carboxymethylcellulose (CMC) 100 % of control

Clc1ccccc1C(N1CCCCC1)N1CCCCC1
inactive: [13] 88 % of control | [14] 92 % of control | [15] 95 % of control

Cc1ccc(S(=O)(=O)OCC2Oc3ccccc3O2)cc1
inactive: dose: 75.0 mg/kg/injection, schedule: Q04DX003 (ip), vehicle: Klucel (hydroxypropylcellulose) (HPC) 93 % of control | dose: 150.0 mg/kg/injection, schedule: Q04DX003 (ip), vehicle: Klucel (hydroxypropylcellulose) (HPC) 107 % of control | dose: 300.0 mg/kg/injection, schedule: Q04DX003 (ip), vehicle: Klucel (hydroxypropylcellulose) (HPC) 100 % of control

CCOc1ccc(/C=C/C(=O)c2ccc(C)cc2)cc1OCC
inactive: dose: 75.0 mg/kg/injection, schedule: Q04DX003 (ip), vehicle: saline 100 % of control | dose: 150.0 mg/kg/injection, schedule: Q04DX003 (ip), vehicle: saline 102 % of control | dose: 300.0 mg/kg/injection, schedule: Q04DX003 (ip), vehicle: saline 105 % of control

O=C(N/N=C/c1cccc2ccccc12)c1cccnc1
inactive: [4] 101 % of control

O=c1[nH]cnc2c1nnn2C1CC(O)C(CO)O1 (configuration not stated)
inactive: [16] 106 % of control | [17] 116 % of control | [1] 100 % of control | [2] 103 % of control | [3] 111 % of control

CCNC(=O)NCCN1CCOCC1
inactive: [18] 95 % of control | [19] 98 % of control | dose: 400.0 mg/kg/injection, schedule: Q01DX009 (ip), vehicle: saline 104 % of control

Cc1ccc(C(N)=O)cn1
inactive: [20] 104 % of control | [21] 104 % of control | [7] 107 % of control | [22] 101 % of control | [8] 97 % of control

O=NN(CCI)C(=O)NCCI
inactive: dose: 18.75 mg/kg/injection, schedule: Q01DX001 (ip), vehicle: carboxymethylcellulose (CMC) 96 % of control | dose: 37.5 mg/kg/injection, schedule: Q01DX001 (ip), vehicle: carboxymethylcellulose (CMC) 98 % of control | [12] 96 % of control | dose: 75.0 mg/kg/injection, schedule: Q01DX001 (ip), vehicle: carboxymethylcellulose (CMC) 100 % of control | [17] 103 % of control | [23] 110 % of control

O=C(CC(c1ccccc1)N1CCCCC1)c1ccccc1 (configuration not stated)
inactive: [16] 97 % of control | [17] 100 % of control | [23] 94 % of control | [24] 97 % of control

CCOP(=O)(Cc1ccc(CP(=O)(OCC)OCC)cc1)OCC
inactive: [1] 105 % of control | [2] 97 % of control | [3] 101 % of control

OCC(F)(F)C(F)F
inactive: [16] 91 % of control | [17] 94 % of control | [23] 91 % of control | [24] 100 % of control

C1CCC(C2CCC(N3CCCCC3)CC2)CC1 (configuration not stated)
inactive: dose: 12.5 mg/kg/injection, schedule: Q01DX001 (ip), vehicle: saline 106 % of control | dose: 25.0 mg/kg/injection, schedule: Q01DX001 (ip), vehicle: saline 101 % of control | [16] 101 % of control

COC(=O)c1cc(C)[nH]c(=O)c1CN
inactive: dose: 75.0 mg/kg/injection, schedule: Q01DX001 (ip), vehicle: water 104 % of control | dose: 150.0 mg/kg/injection, schedule: Q01DX001 (ip), vehicle: water 107 % of control

COc1cccc(/C=C2/COC/C(=C\c3cccc(OC)c3OC)C2=O)c1OC
inactive: [18] 91 % of control | [19] 97 % of control

O=C1CCC(N2C(=O)C3C4CCC(O4)C3C2=O)C(=O)O1 (configuration not stated)
inactive: [13] 102 % of control | [14] 94 % of control | [15] 91 % of control

Fc1ccc(C=Nc2cccc(Cl)c2)cc1
inactive: [20] 95 % of control | [6] 103 % of control | [21] 97 % of control | [7] 93 % of control | [22] 100 % of control | [8] 98 % of control

CC(C)=C(c1ccc(C(C)(C)C)cc1)c1ccc(C(C)(C)C)cc1
inactive: [20] 94 % of control | [21] 95 % of control

Oc1ccccc1C=Nc1ccc(Cl)cc1
inactive: [25] 105 % of control | [26] 105 % of control | [27] 97 % of control

Cc1ccc(NCc2ccccc2O)c(C)c1
inactive: dose: 100.0 mg/kg/injection, schedule: Q04DX003 (ip), vehicle: gum acacia 94 % of control | dose: 200.0 mg/kg/injection, schedule: Q04DX003 (ip), vehicle: gum acacia 101 % of control | dose: 400.0 mg/kg/injection, schedule: Q04DX003 (ip), vehicle: gum acacia 99 % of control

OCC1C(CO)C2CC1C1N=NN(c3ccccc3)C21 (configuration not stated)
inactive: [25] 93 % of control | [26] 90 % of control | [27] 93 % of control
